Like-named read-outs stand apart in the source and are kept apart here.
Assays:
[1] = target: T1, Bombyx mori EcR (VP16 fusion, CVBE switch construct) (Bombyx mori, UniProt P49881); assay: Z3 Assay (HEK-293 cells with CVBE and 6XEcRE LacZ, β-galactosidase reporter); details: for Z3 assay Rel Max FI: maximum fold induction at any concentration relative to that of GS-E ligand; for Fold Induction, Z3 Assay, 3.3 uM: 3.3 uM ligand; for Fold Induction, Z3 Assay, 3.3 uM / Fold Induction, Z3 Assay, 33 uM: ligand treated / DMSO treated cells; for Fold Induction, Z3 Assay, 33 uM: 33 uM ligand
T1 sequence (P49881 86-606): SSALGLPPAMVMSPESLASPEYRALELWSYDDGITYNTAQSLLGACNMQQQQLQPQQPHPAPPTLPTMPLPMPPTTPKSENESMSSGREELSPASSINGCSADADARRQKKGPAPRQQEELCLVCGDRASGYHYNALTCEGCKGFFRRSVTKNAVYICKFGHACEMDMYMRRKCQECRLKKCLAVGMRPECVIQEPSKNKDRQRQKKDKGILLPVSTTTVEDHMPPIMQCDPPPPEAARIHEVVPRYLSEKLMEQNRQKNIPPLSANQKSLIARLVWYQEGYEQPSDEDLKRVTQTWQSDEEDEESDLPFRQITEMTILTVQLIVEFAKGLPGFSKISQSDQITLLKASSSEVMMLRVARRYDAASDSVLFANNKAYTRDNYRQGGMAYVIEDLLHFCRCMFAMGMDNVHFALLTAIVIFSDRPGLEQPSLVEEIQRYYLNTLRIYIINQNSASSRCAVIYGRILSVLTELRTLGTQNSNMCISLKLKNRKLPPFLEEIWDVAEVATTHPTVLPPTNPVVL
T1 sequence (P19793 1-462 partner): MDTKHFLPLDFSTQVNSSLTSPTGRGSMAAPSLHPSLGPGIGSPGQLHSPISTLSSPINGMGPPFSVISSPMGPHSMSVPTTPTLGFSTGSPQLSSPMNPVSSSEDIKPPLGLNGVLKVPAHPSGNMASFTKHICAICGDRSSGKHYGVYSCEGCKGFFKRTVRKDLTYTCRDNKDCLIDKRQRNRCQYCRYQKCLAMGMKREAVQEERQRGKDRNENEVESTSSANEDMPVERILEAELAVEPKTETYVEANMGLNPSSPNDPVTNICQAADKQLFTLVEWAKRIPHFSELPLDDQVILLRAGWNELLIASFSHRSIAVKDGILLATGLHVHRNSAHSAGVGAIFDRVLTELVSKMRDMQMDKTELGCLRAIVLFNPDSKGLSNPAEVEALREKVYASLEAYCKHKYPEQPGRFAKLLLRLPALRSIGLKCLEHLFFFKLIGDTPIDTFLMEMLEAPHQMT

[2] = target: GAL4 DBD-CfEcR(DEF)/VP16AD-MmRXRE (Choristoneura fumiferana, UniProt O77240); assay: 13B3 Assay (CHO stable cell line, luciferase reporter); details: for 13B3 assay Rel Max FI: maximum fold induction at any concentration relative to that of GS-E ligand, CHO 13B3 cells; for Fold Induction, 13B3 Assay, 3.3 uM: 3.3 uM ligand; for Fold Induction, 13B3 Assay, 3.3 uM / Fold Induction, 13B3 Assay, 33 uM: RLU ligand treated / RLU DMSO treated cells; for Fold Induction, 13B3 Assay, 33 uM: 33 uM ligand
Outline: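 CHO 13B3 clone stably expressing GAL4 DBD–CfEcR(DEF) and VP16AD–MmRXR(DE) with GAL4 RE–luciferase reporter; cells plated 24 h at 37 °C, then treated with ligands (DMSO stocks diluted 300-fold), 8 concentrations 33–0.01 μM.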

[3] = read-out: Z3 assay EC50, HEK-293 Z3 cells, β-galactosidase reporter, average of two wells
[4] = read-out: 13B3 EC50, CHO 13B3 stable cell line, luciferase reporter, 48 h, average of two wells

| SMILES | EC50 [1] [µM] | fold induction at 3.3 µM ([1]; HEK293, read-out: Fold Induction, Z3 Assay, 3.3 uM) | Z3 assay Rel Max FI ([1]; HEK-293 Z3 cells) | EC50 [2] [µM] | 13B3 assay Rel Max FI [2] | fold induction at 3.3 µM ([2]; read-out: Fold Induction, 13B3 Assay, 3.3 uM) | fold induction at 33 µM ([2]; read-out: Fold Induction, 13B3 Assay, 33 uM) | Fold Induction, Z3 Assay, 3.3 uM ([1]; average of two wells) | Fold Induction, Z3 Assay, 33 uM ([1]; average of two wells) | EC50 [1, 3] [µM] | Fold Induction, 13B3 Assay, 3.3 uM ([2]; average of two wells) | Fold Induction, 13B3 Assay, 33 uM ([2]; average of two wells) | EC50 [2, 4] [µM] |
| --- | --- | --- | --- | --- | --- | --- | --- | --- | --- | --- | --- | --- | --- |
| COc1cc(C(=O)N(NC(=O)c2ccc3c(c2C)OCCO3)C(C)(C)C)cc(OC)c1C [RG-115637, 5-Methyl-2,3-dihydro-benzo[1,4]dioxine-6-carboxylic acid N′-tert-butyl-N′-(3,5-dimethoxy-4-methyl-benzoyl)-hydrazide] | 0.018 | 211 | 0.947 | 0.088 | 1.002 | 1110 | 636 | – | – | – | – | – | – |
| CCc1c(OC)cccc1C(=O)NN(C(=O)c1cc(C)cc(C=NNC(=O)C(N)=O)c1)C(C)(C)C [RG-115613, oxamic hydrazone of N-(3-formyl-5-methyl-benzoyl)-N-tert-butyl-N′-(2-ethyl-3-methoxy-benzoyl) hydrazide] | – | – | 0.964 | – | 0.734 | – | – | 991 | 1469 | 0.589 | 180 | 1726 | 5.94 |
| CCc1c(C(=O)NN(C(=O)c2cc(Cl)nc(Cl)c2)C(C)(C)C)ccc2c1OCCO2 [RG-115297] | – | – | 0.872 | – | 0.737 | – | – | 443 | 604 | 0.066 | 1364 | 304 | 1.36 |
| COc1cc(C)cc(C(=O)N(NC(=O)c2cccc(OC)c2C)C(C)(C)C)c1 [RG-100767] | – | – | 0.996 | – | 0.920 | – | – | 825 | 371 | 0.251 | 4504 | 682 | 1.06 |
| CCc1c(OC)cccc1C(=O)NN(C(=O)c1cc(Cl)ccc1OC)C(C)(C)C [RG-115253] | – | – | – | – | – | – | – | – | 832 | 0.269 | – | 471 | – |
| CCc1c(OC)cccc1C(=O)NN(C(=O)c1cc(C)cc(COC(C)=O)c1)C(C)(C)C [RG-115223] | – | – | 0.925 | – | 1.346 | – | – | 323 | 1299 | 1.91 | 8 | 3437 | > 50 |
| Cc1ccc([N+](=O)[O-])c(C(=O)N(NC(=O)c2ccc3c(c2C)CCCO3)C(C)(C)C)c1 [RG-115664] | – | – | 0.846 | – | 0.497 | – | – | 209 | 620 | 0.126 | 1363 | 333 | 0.323 |
| CC(=O)c1ccc(C(=O)NN(C(=O)c2cc(C(=O)O)cc(C(=O)O)c2)C(C)(C)C)cc1 [RG-100150] | – | – | – | – | – | – | – | – | 1 | – | – | 1 | – |
| COc1cnccc1C(=O)N(NC(=O)c1cccc(O)c1C)C(C)(C)C [RG-115595] | – | – | 0.686 | – | – | – | – | 44 | 1067 | 5.62 | 6 | 1381 | – |
| Cc1c(C(=O)NN(C(=O)c2ccc(F)c(F)c2)C(C)(C)C)ccc2c1CCCO2 [RG-115416] | – | – | 1.869 | – | 12.104 | – | – | 164 | 1116 | 0.091 | 3618 | 2737 | 0.938 |
| COc1cccc(C(=O)N(NC(=O)c2ccc3c(c2C)OCCO3)C(C)(C)C)c1 [RG-100360] | – | – | 1.073 | – | 0.825 | – | – | 870 | 891 | 0.257 | 1111 | 745 | 0.588 |

Reference: patent US9102648B1, “Bioavailable diacylhydrazine ligands for modulating the expression of exogenous genes via an ecdysone receptor complex” (Intrexon Corporation, priority 2003, dated 2015)
